Calls of active or inactive are those of the source. No cut-off for these calls is given here.
How the values were obtained:
[1] = AUC (0 to t) in Sprague-Dawley rat at 10 mg/kg, po by LC-MS/MS analysis; type: ADME, organism-based; settings: in vivo
[2] = Cmax in mouse at 10 mg/kg, po by LC-MS/MS analysis; type: ADME, organism-based; design: dose 10 mg/kg, route oral; settings: in vivo
[3] = AUC (0 to infinity) in mouse at 1 mg/kg, iv by LC-MS/MS analysis; type: ADME, organism-based; design: dose 1 mg/kg, route intravenous, time infinity; settings: in vivo
[4] = tested on: Bcr/Abl fusion protein (Homo sapiens), P00519+P11274 [M351T]; settings: BaF3
BaF3 [5] = test: Cell cycle arrest in mouse BAF3 cells expressing BCR/ABL T315I mutant assessed as accumulation at G0/G1 phase up to 0.3 uM after 24 hrs by propidium iodide/RNase staining based flow cytometric analysis; type: functional
[6] = molecular target: Cytoplasmic tyrosine-protein kinase BMX (Homo sapiens) (UniProt P51813); test: Inhibition of wild type C-terminal FLAG-tagged human TEL fused BMX (unknown origin) transfected in mouse BAF3 cells assessed as growth inhibition after 72 hrs by CCK8 assay; type: cell-based
Sequence of Cytoplasmic tyrosine-protein kinase BMX (Homo sapiens) (P51813 whole entry, the tested form may be a part): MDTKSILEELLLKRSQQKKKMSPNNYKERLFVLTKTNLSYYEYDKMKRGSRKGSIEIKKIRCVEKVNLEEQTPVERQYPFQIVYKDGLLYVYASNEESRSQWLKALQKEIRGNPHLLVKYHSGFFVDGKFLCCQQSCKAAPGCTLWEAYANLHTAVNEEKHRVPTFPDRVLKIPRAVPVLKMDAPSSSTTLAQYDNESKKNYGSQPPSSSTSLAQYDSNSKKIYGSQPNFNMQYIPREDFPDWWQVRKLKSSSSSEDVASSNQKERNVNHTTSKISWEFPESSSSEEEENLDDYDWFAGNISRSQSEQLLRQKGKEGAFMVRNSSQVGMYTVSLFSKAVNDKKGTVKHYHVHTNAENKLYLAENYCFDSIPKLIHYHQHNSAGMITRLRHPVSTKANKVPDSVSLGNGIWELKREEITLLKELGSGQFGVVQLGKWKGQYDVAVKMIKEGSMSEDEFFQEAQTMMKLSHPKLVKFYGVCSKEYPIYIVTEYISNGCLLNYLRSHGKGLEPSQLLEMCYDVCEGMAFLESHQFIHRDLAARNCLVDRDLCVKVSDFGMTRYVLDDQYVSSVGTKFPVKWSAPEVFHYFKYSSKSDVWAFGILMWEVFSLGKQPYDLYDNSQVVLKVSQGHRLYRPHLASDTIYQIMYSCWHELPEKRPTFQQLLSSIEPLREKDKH

[7] = tested on: Bcr/Abl fusion protein (Homo sapiens), P00519+P11274 [V299L]; settings: BaF3
[8] = Tmax in mouse at 1 mg/kg, iv by LC-MS/MS analysis; type: ADME, organism-based; settings: in vivo
[9] = Apparent clearance during terminal phase in mouse at 10 mg/kg, po by LC-MS/MS analysis; type: ADME, organism-based; settings: in vivo, read-out: CLz/F (converted)
[10] = Toxicity in nu/nu mouse allografted with mouse BAF3 cells expressing BCR/ABL T315I mutant assessed as effect on body weight at 25 to 50 mg/kg, po administered daily via gavage for 14 days; type: organism-based; settings: in vivo, 336 h
[11] = molecular target: T1, Tyrosine-protein kinase ABL1 (Homo sapiens, UniProt P00519, T315I); test: Inhibition of inactive wild type His-tagged ABL T315I mutant (229 to 500 residues) (unknown origin) expressed in baculovirus infected sf9 cells assessed as reduction in autophosphorylation preincubated for 60 mins followed by ATP addition measured after 8 hrs by ADP-Glo assay
MEG-01 [12] = test: Induction of apoptosis in human MEG01 cells assessed as cleaved caspase-3 level up to 0.3 uM after 24 hrs by immunoblotting analysis; type: functional, cell-based
BaF3 [13] = test: Antitumor activity against mouse BAF3 cells expressing BCR/ABL T315I mutant allografted in nu/nu mouse assessed as tumor growth inhibition at 25 mg/kg, po administered via gavage for 14 days relative to control; type: functional; settings: 336 h, read-out: TGI
[14] = Half life in Sprague-Dawley rat at 10 mg/kg, po by LC-MS/MS analysis; type: ADME, organism-based; settings: in vivo
MEG-01 [15] = test: Induction of apoptosis in human MEG01 cells assessed as cleaved PARP level up to 0.3 uM after 24 hrs by immunoblotting analysis; type: functional, cell-based
[16] = molecular target: T1, Tyrosine-protein kinase ABL1; test: Inhibition of active wild type His-tagged ABL T315I mutant (229 to 500 residues) (unknown origin) expressed in baculovirus infected sf9 cells using ABLtide as substrate after 1 hr by ADP-Glo assay
[17] = molecular target: Fibroblast growth factor receptor 2 (Homo sapiens) (UniProt P21802); test: Inhibition of wild type C-terminal FLAG-tagged human TEL fused FGFR2 (unknown origin) transfected in mouse BAF3 cells assessed as growth inhibition after 72 hrs by CCK8 assay; type: cell-based
Sequence of Fibroblast growth factor receptor 2 (Homo sapiens) (P21802 22-821 limits assumed): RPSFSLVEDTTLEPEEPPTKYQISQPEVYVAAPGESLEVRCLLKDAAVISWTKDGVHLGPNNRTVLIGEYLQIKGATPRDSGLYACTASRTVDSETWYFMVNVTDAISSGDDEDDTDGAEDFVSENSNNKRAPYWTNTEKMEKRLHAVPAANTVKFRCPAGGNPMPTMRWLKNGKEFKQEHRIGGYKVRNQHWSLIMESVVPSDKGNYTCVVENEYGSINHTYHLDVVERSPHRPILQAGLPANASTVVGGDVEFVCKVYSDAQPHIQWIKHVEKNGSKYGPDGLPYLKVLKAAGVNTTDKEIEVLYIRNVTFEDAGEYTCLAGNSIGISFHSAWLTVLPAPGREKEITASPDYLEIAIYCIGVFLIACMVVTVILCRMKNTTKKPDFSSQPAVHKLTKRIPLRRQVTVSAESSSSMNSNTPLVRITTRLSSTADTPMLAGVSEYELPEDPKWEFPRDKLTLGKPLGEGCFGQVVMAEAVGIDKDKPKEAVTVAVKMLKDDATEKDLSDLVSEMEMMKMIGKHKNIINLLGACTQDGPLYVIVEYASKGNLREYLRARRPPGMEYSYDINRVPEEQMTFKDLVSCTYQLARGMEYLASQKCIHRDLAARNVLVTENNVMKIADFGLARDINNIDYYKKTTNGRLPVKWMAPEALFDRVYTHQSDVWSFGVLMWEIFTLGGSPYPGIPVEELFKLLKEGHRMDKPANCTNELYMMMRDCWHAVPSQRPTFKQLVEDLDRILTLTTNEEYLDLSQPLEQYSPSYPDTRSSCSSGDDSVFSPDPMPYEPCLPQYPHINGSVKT

[18] = molecular target: Receptor-type tyrosine-protein kinase FLT3 (Homo sapiens) (UniProt P36888); test: Inhibition of wild type C-terminal FLAG-tagged human TEL fused FLT3 (unknown origin) transfected in mouse BAF3 cells assessed as growth inhibition after 72 hrs by CCK8 assay; type: cell-based
Sequence of Receptor-type tyrosine-protein kinase FLT3 (Homo sapiens) (P36888 whole entry, the tested form may be a part): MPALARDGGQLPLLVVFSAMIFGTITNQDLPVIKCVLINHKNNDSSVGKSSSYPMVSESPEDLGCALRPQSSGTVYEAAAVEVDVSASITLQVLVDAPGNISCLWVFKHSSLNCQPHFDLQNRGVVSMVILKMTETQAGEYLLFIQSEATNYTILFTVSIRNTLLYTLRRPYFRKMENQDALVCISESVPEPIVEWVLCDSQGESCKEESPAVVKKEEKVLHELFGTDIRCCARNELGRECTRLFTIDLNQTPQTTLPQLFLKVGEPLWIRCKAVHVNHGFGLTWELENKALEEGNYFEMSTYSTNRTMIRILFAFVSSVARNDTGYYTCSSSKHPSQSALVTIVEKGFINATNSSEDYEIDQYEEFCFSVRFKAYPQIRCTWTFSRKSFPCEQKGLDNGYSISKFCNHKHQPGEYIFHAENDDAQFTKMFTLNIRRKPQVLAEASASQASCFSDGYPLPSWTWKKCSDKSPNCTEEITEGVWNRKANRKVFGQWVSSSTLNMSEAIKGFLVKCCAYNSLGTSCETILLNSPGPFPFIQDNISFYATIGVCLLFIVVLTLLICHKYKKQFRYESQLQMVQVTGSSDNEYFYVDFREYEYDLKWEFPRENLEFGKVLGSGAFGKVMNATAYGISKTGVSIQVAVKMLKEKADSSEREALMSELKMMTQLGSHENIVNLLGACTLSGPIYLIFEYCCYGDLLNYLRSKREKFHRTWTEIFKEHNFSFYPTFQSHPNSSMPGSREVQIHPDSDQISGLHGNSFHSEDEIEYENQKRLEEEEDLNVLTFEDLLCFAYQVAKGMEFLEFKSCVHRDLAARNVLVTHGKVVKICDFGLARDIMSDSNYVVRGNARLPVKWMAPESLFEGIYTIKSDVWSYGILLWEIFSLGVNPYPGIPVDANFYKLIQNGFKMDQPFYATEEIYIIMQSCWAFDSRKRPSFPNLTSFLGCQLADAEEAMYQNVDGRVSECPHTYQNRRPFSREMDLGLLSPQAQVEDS

MEG-01 [19] = test: Antiproliferative activity in human MEG01 cells after 72 hrs by CCK8 assay; type: functional; settings: MEG-01, 72 h
[20] = molecular target: Proto-oncogene tyrosine-protein kinase Src (Homo sapiens) (UniProt P12931); test: Inhibition of wild type C-terminal FLAG-tagged human TEL fused SRC (unknown origin) transfected in mouse BAF3 cells assessed as growth inhibition after 72 hrs by CCK8 assay; type: cell-based
Sequence of Proto-oncogene tyrosine-protein kinase Src (Homo sapiens) (P12931 2-536 limits assumed): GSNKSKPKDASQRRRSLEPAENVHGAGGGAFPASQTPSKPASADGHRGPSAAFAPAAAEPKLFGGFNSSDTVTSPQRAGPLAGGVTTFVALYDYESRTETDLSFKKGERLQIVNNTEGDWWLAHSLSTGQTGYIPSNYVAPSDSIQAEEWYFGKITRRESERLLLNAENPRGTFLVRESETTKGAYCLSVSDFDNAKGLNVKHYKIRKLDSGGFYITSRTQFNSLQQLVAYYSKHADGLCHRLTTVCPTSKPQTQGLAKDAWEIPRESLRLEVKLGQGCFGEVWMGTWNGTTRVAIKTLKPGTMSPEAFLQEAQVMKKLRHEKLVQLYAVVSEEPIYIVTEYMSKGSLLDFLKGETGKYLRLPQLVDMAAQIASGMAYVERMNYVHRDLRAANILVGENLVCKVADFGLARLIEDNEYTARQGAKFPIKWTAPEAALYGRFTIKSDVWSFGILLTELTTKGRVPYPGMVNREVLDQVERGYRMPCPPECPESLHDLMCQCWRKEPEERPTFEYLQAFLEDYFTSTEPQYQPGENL

[21] = molecular target: T2, Bcr/Abl fusion protein (Homo sapiens) (UniProt P00519+P11274); test: (§1) Inhibition of BCR/ABL in human K562 cells assessed as inhibition of BCR/ABL autophosphorylation at Y245 site after 1 hr by immunoblotting analysis; type: cell-based
Bcr/Abl fusion protein [22] = molecular target: Bcr/Abl fusion protein (Homo sapiens, UniProt P00519); test: as §1; type: cell-based
[23] = Oral bioavailability in Sprague-Dawley rat at 10 mg/kg by LC-MS/MS analysis; type: ADME, organism-based; settings: in vivo
[24] = Apparent volume of distribution during terminal phase in mouse at 1 mg/kg, iv by LC-MS/MS analysis; type: ADME, organism-based; settings: in vivo, read-out: Vz
[25] = molecular target: Vascular endothelial growth factor receptor 1 (Homo sapiens) (UniProt P17948); test: Inhibition of wild type C-terminal FLAG-tagged human TEL fused FLT1 (unknown origin) transfected in mouse BAF3 cells assessed as growth inhibition after 72 hrs by CCK8 assay; type: cell-based
[26] = molecular target: Ephrin type-A receptor 2 (Homo sapiens) (UniProt P29317); test: Inhibition of wild type C-terminal FLAG-tagged human TEL fused EPHA2 (unknown origin) transfected in mouse BAF3 cells assessed as growth inhibition after 72 hrs by CCK8 assay; type: cell-based
Sequence of Ephrin type-A receptor 2 (Homo sapiens) (P29317 whole entry, the tested form may be a part): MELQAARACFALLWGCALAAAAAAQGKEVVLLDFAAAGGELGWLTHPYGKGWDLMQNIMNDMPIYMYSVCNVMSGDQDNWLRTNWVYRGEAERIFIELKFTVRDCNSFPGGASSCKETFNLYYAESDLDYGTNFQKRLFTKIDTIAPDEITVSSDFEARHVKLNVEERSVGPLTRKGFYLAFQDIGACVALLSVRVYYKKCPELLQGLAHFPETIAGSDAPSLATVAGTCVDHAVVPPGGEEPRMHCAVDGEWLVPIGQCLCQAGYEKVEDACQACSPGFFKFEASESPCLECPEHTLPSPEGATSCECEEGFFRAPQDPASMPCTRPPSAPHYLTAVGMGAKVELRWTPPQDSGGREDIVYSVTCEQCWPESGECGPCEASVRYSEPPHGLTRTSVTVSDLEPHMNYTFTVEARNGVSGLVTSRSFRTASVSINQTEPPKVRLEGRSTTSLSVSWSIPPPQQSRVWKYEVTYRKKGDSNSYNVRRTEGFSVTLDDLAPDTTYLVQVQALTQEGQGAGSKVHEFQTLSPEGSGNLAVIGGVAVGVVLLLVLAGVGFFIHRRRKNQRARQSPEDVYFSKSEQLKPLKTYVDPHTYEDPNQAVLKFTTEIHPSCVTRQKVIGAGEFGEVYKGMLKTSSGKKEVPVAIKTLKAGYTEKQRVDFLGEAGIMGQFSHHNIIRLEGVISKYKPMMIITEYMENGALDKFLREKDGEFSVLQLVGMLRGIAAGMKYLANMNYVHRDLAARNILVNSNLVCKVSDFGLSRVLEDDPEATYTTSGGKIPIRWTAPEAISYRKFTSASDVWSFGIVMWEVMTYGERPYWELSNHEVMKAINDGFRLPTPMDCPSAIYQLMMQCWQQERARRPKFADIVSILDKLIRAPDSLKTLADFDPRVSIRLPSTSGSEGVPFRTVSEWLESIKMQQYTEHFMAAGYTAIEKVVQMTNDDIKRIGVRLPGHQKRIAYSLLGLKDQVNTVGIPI

[27] = AUC (0 to infinity) in Sprague-Dawley rat at 1 mg/kg, iv by LC-MS/MS analysis; type: ADME, organism-based; design: dose 1 mg/kg, time infinity, route intravenous; settings: in vivo
[28] = Cmax in Sprague-Dawley rat at 1 mg/kg, iv by LC-MS/MS analysis; type: ADME, organism-based; design: dose 1 mg/kg, route intravenous; settings: in vivo
[29] = Antiproliferative activity in mouse BAF3 cells after 72 hrs by CCK8 assay; type: cell-based
[30] = molecular target: Mast/stem cell growth factor receptor Kit (Homo sapiens) (UniProt P10721); test: Inhibition of wild type C-terminal FLAG-tagged human TEL fused cKIT (unknown origin) transfected in mouse BAF3 cells assessed as growth inhibition after 72 hrs by CCK8 assay; type: cell-based
Sequence of Mast/stem cell growth factor receptor Kit (Homo sapiens) (P10721 whole entry, the tested form may be a part): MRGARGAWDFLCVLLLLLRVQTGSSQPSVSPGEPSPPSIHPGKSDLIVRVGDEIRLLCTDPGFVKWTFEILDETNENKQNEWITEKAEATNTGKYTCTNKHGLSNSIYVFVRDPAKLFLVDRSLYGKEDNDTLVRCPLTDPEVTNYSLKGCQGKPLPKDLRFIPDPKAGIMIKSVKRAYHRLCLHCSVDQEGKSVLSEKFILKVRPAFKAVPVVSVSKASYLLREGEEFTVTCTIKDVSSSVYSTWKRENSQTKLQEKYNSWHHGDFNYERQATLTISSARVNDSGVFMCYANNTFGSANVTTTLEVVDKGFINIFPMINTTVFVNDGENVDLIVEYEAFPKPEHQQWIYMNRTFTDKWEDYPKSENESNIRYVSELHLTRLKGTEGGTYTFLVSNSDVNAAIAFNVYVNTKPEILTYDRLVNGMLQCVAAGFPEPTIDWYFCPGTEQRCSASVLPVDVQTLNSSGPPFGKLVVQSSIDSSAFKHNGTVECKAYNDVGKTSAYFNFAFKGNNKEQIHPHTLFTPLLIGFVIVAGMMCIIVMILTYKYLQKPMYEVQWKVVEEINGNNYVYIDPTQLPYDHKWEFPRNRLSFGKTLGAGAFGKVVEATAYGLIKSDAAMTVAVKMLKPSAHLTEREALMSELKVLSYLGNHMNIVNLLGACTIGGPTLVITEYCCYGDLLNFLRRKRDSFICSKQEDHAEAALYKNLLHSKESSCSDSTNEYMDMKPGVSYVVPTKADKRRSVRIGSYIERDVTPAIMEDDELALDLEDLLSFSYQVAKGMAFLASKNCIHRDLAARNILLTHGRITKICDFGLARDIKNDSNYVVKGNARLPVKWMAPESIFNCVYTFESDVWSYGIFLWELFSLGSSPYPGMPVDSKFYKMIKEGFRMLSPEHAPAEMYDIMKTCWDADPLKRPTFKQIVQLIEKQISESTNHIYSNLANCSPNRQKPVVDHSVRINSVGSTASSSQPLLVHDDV

KU812 cell line = test: Induction of apoptosis in human KU812 cells assessed as cleaved caspase-3 level up to 0.3 uM after 24 hrs by immunoblotting analysis; type: functional, cell-based
[31] = Oral bioavailability in mouse at 10 mg/kg by LC-MS/MS analysis; type: ADME, organism-based; settings: in vivo
MEG-01 [32] = test: Cell cycle arrest in human MEG01 cells assessed as accumulation at G0/G1 phase up to 0.3 uM after 24 hrs by propidium iodide/RNase staining based flow cytometric analysis; type: functional
Bcr/Abl fusion protein [33] = molecular target: Bcr/Abl fusion protein (Homo sapiens, UniProt P00519, T315I); test: Inhibition of BCR/ABL T315I mutant (unknown origin) expressed in mouse BAF3 cells assessed as inhibition of CrkL phosphorylation after 1 hr by immunoblotting analysis; type: cell-based
[34] = MRT (0 to t) in Sprague-Dawley rat at 10 mg/kg, po by LC-MS/MS analysis; type: ADME, organism-based; settings: in vivo
[35] = molecular target: T2, Bcr/Abl fusion protein (Homo sapiens); settings: BaF3
Description: Inhibition of wild type BCR/ABL (unknown origin) transfected in mouse BAF3 cells assessed as growth inhibition after 72 hrs by CCK8 assay

[36] = AUC (0 to t) in Sprague-Dawley rat at 1 mg/kg, iv by LC-MS/MS analysis; type: ADME, organism-based; settings: in vivo

`CN1CCN(Cc2ccc(NC(=O)CCSc3ccc4c(/C=C/c5ccccn5)n[nH]c4c3)cc2C(F)(F)F)CC1` gave an AUC(0-t) [1] of 210 ng·h/mL, a Cmax [2] of 87.7 ng/mL and an AUC(0-inf) [3] of 160 ng·h/mL. The GI50 [4] was 17 nM, the Activity (BaF3 [5]) was “Active” and the GI50 [6] was 2340 nM. It also gave a GI50 [7] of 103 nM, a Tmax [8] of 1.8 min and a CL/F [9] of 723 mL/min/kg. The Activity [10] was “Non-Toxic”, the IC50 [11] was 0.2 nM and the Activity (MEG-01 [12]) was “Active”. For the same compound, the inhibition in vivo at 25 mg/kg (BaF3 [13]) was 29%, the half-life [14] was 2.6 h and the Activity (MEG-01 [15]) was “Active”. For the same compound, the IC50 [16] was 0.2 nM, the GI50 [17] was 36 nM and the GI50 [18] was 4 nM. For the same compound, the GI50 (MEG-01 [19]) was 1 nM, the GI50 [20] was 1050 nM and the inhibition [21] was “Dose-dependent effect”. For the same compound, the EC50 (Bcr/Abl fusion protein [22]) was < 10 nM, the bioavailability [23] was 10.9% and the Vd [24] was 45.3 L/kg. For the same compound, the GI50 [25] was 2 nM, the GI50 [26] was 120 nM and the AUC(0-inf) [27] was 202 ng·h/mL. It also gave a Cmax [28] of 1270 ng/mL, a GI50 at 72 h [29] of 2480 nM and a GI50 [30] of 33 nM. For the same compound, the Activity (KU812 cell line) was “Active”, the bioavailability [31] was 14.4% and the Activity (MEG-01 [32]) was “Active”. For the same compound, the EC50 (Bcr/Abl fusion protein [33]) was < 10 nM, the MRT last [34] was 4.4 h and the GI50 [35] was 7 nM. For the same compound, the AUC(0-t) [36] was 192 ng·h/mL.

— ChEMBL document CHEMBL4382204 (Eur J Med Chem, 2018)
